Tests used:
[1] = tested on: GNE myopathy mice skeletal muscle tissue; conditions: cited from earlier work; for Hyposialylation of GNE myopathy mice skeletal muscle tissue: Niethamer et al., Mol Genet Metab 2012
[2] = tested on: GNE myopathy mice; conditions: cited from earlier work; for Prevention of muscle disease in GNE myopathy mice: prophylactic, Malicdan et al., Nature Med 2009
[3] = tested on: heart tissue of GNE −/− mice; assay: SNA lectin staining of heart sections (sialylation status); assay type: in vivo; conditions: ~1 year old GNE −/− mice treated since age 10 weeks with 2 g/kg/day; vs untreated GNE −/− mice
Procedure: Mouse hearts or skeletal muscle (gluteus) were harvested and fixed in 4% paraformaldehyde for 48 hours at room temperature, dehydrated in 70% ethanol at 4° C., and paraffin-embedded for sectioning (Histoserv, Gaithersburg, Md.). Tissue sections (5 um) were stained with a variety of lectins, as previously described for mouse kidneys and muscle (Kakani et al., Am J Pathol 2012; 180: 1431-40; Niethamer et al., Mol Genet Metab 2012; 107: 748-55) as well as for GNE myopathy patients' muscle (Leoyklang et al., Biomarkers Med 2014; 8: 641-52). Lectin histochemistry was performed with fluorescein isothiocyanate (FITC) labeled lectins WGA and VVA from EY Laboratories (San Mateo, Calif.) and SNA from Vector Laboratories (Burlingame, Calif.). Each slide was also stained with the nuclear dye DAPI. Fluorescence imaging of multiple sections of heart per slide was performed under a Zeiss 510 META confocal laser-scanning microscope. All fluorescent images represent collapsed stacks of confocal Z-sections, imaged at 63× magnification.

[4] = tested on: GNE Myopathy myotubes; assay: ROS generation under pro-oxidants (H2O2 or menadione), ΔDCF fluorescence; assay type: cell-based, mice; conditions: GNE Myopathy myotubes incubated before and during exposure to H2O2 and menadione; vs untreated; p<0.01
Procedure: (§1) Cell cultures and myotubes analysis: Myocytes from Gne^−/−hGNED176V-Tg mice and littermate controls were proliferated in DMEM containing 20% fetal bovine serum and 1% chicken embryo extracts in a 5% CO2 and induced to differentiation in a serum free medium, OPTIPRO™ SFM (Gibco), to make the cells hyposialylated. Where indicated, myotubes were treated with 5 mM NeuAc (Japan Food and Liquor Alliance) or 5 mM NAC (Sigma) for 72 h.
To evaluate the ROS generation under pro-oxidants, myotubes cultured in each condition were loaded with 5 μM DCFH-DA for 1 h and recovered in the different concentrations of H2O2 or menadione-containing medium. After 30 min incubation in dark at 37° C., the microplate containing cells with pro-oxidants were placed in a plate reader and fluorescence was captured at every 5 min until it reached a plateau. Maximum fluorescence of each well was used for analysis.

[5] = tested on: GNE Myopathy myotubes; assay: Intracellular ROS (DCF fluorescence) in cultured myotubes; assay type: cell-based, mice; conditions: GNE Myopathy myotubes treated with 5 mM for 72 h; mean±SEM; untreated 1113±30, littermate controls 115±15
Procedure: as §1
For the analysis of intracellular ROS, a popular fluorescence-based probe, 2′,7′-dichlorodihydrofluorescein diacetate (DCFH-DA) (Wang et al., Free Radical Biology and Medicine. 1999; 27:612-616; Halliwell and Whiteman, Br J Pharmacol. 2004; 142:231-255) was used. Cells were loaded with 5 μM DCFH-DA (Invitrogen) in PBS for an hour and recovered with phenol red-free DMEM (Gibco) for 30 min at 37° C. in a 5% CO2 incubator. Then the cells were placed in a CYTOFLUOR® Series 4000 multi-well fluorescence plate reader (PerSeptive Biosystems) with temperature maintained at 37° C. The excitation filter was set at 485 nm and the emission filter was set at 530 nm. The fluorescence from each well was captured and recorded.

[6] = tested on: GNE Myopathy myotubes; assay: Cell viability assay under pro-oxidants (propidium iodide/Hoechst co-staining); assay type: cell-based, mice; conditions: treated GNE Myopathy myotubes vs untreated; same concentrations of H2O2 or menadione
Procedure: as §1
For the cell viability assay, myotubes were exposed to H2O2 for 24 h and to menadione for 6 h before staining. Nuclear staining with Hoechst 33342 (Thermo Scientific) and propidium iodide (PI) (Dojindo) was used for morphological assessment of apoptosis by fluorescence microscopy (Lee and Shacter, Journal of Biological Chemistry. 1999; 274:19792-19798). Minimum 200 nuclei were counted and cell viability was calculated by the exclusion of PI-stained nuclei from Hoechst 33342-stained nuclei.

## N[C@@H]1C(O)O[C@H](CO)[C@@H](O)[C@@H]1O (stereo partly shown) [mannosamine]
[1]
  Hyposialylation of GNE myopathy mice skeletal muscle tissue: rescue hyposialylation

## CC(=O)NC1C(O)[C@H](O)C(CO)O[C@H]1O (stereo partly shown) [ManNAc, N-acetyl mannosamine]
[2]
  Prevention of muscle disease in GNE myopathy mice: prophylactically prevent muscle disease
[3]
  Sialylation of glycans in heart tissue (SNA lectin staining): significantly increased sialylation
[1]
  Hyposialylation of GNE myopathy mice skeletal muscle tissue: rescue hyposialylation
[1]; oral 1 g/kg/day for 12 weeks, gastrocnemius, adapted from Niethamer et al., 2012
  Sialylation status of skeletal muscle (SNA and VVA signal): restored the sialylation status back to the normal range

## sialyllactose
[2]
  Prevention of muscle disease in GNE myopathy mice: prophylactically prevent muscle disease

## CC(=O)N[C@H]1[C@H]([C@H](O)[C@H](O)CO)OC(O)(C(=O)O)C[C@@H]1O (stereo partly shown) [NeuAc, N-acetyl neuraminic acid]
[2]
  Prevention of muscle disease in GNE myopathy mice: prophylactically prevent muscle disease
[2]; sialic acid supplement, Malicdan et al. 2009, 2008
  Muscle force generation in treated mice: increased in proportion to muscle fiber diameter
[3]
  Sialylation of glycans in heart tissue (SNA lectin staining): significantly increased sialylation
[1]
  Hyposialylation of GNE myopathy mice skeletal muscle tissue: rescue hyposialylation
[4]
  ΔDCF fluorescence increments on exposure to pro-oxidants: significantly decreased
[5]
  Mean DCF fluorescence (intracellular ROS generation): 349±19 AFU
[6]
  Relative cell viability under pro-oxidants: more resistant
